Reference: patent US20160324863A1, “TARGETED CANCER TREATMENT BY HSP90 INHIBITORS GANETESPIB AND NVP-AUY922” (SYNTA PHARMACEUTICALS CORP., priority 2014, published 2016)
Like-named read-outs stand apart in the source and are kept apart here.

Key:
[1] = tested on: DHS1 bladder cancer cell line; experiment: CellTiter-Glo viability assay, DHS1; type: cell-based; details: FGFR3 status WT, 72 hours, read-out: Ganetespib IC50
Procedure: (§1) Cellular viability was assessed using the CellTiter-Glo Luminescent Cell Viability Assay (Promega) according to manufacturer protocols. Bladder cancer cell lines were seeded into 96-well plates based on optimal growth rates determined empirically for each line. Twenty-four hours after plating, cells were dosed with graded concentrations of ganetespib for 72 hours. CellTiter-Glo was added (50% v/v) to the cells, and the plates incubated for 10 minutes prior to luminescent detection in a SpectraMax Plus 384 microplate reader (Molecular Devices). Data were normalized to percent of control and IC50 values used to determine the sensitivity of each line. For the comparative analyses with ganetespib and BGJ398, RT112 cells were treated with graded concentrations of each compound for 72 hours and cell viability measured as above. For the evaluation of apoptotic induction, caspase activity was assessed using the Caspase-Glo 3/7 assay (Promega) according to manufacturer protocols. Twenty-four hours after plating, RT112 cells were treated with graded concentrations of ganetespib for 24 hours. Caspase-Glo was added to cells (50% v/v) and the plates incubated for 1 hour prior to luminescent detection.

[2] = tested on: 639-V bladder cancer cell line; experiment: CellTiter-Glo viability assay, 639-V; type: cell-based; details: Homo sapiens, FGFR3 status R248C, 72 hours, read-out: Ganetespib IC50
Procedure: as §1

[3] = tested on: UM-UC3 bladder cancer cell line; experiment: CellTiter-Glo viability assay, UM-UC3; type: cell-based; details: Homo sapiens, UMUC3, FGFR3 status WT, 72 hours, read-out: Ganetespib IC50
Procedure: as §1

[4] = tested on: 5637 bladder cancer cell line; experiment: CellTiter-Glo viability assay, 5637; type: cell-based; details: FGFR3 status WT, 72 hours, read-out: Ganetespib IC50
Procedure: as §1

[5] = tested on: RT4 bladder cancer cell line; experiment: CellTiter-Glo viability assay, RT4; type: cell-based
Procedure: as §1

[6] = tested on: RT112 bladder cancer cells; experiment: Reverse phase protein array analysis in RT112 cells; type: cell-based; details: 100 nM ganetespib, 24 hours
Procedure: RT112 cells were treated with dimethyl sulfoxide (DMSO, control) or 100 nM ganetespib for 24 hours. Lysates were prepared as recommended by MD Anderson Cancer Center (Houston, Tex.), arrayed on nitrocellulose-coated FAST slides (Whatman) and probed for a standard list of antibodies.

[7] = tested on: panel of eleven CRC-derived cell lines; experiment: Proliferation assay in CRC-derived cell lines (Celigo confluence); type: cell-based; details: Homo sapiens, 96 h; range across eleven CRC cell lines; four days; read-out: Drug concentrations that inhibited the growth rate by 50%
Procedure: Eleven cell lines derived from human colorectal cancers (CRC) were cultured in RPMI (Invitrogen, Darmstadt, Germany) supplemented with 10% FCS (ThermoScientific, Waltham Mass., USA), 2 mM L-glutamine and Penicillin-Streptomycin (Invitrogen). Cell-line cross-contaminatino was excluded using short tandem repeat profiling. Specific knockdown of target genes was performed using pre-designed Silencer Select siRNAs (s231075 and s231076, designated s75 and s76) or control siRNAs (scrambled, all from Ambion, Hamburg, Germany) with a final concentration of 5 nM. Overexpression was performed with pCMV-SPORT6 vector constructs. For both up- and downregulation, Lipofectamine 2000 (Invitrogen) was applied in a forward transfection protocol. Ganetespib (Synta Pharma, Lexington Mass., USA) and 17AAG (Calbiochem, Darmstadt, Germany) were dissolved in DMSO (50 mM and 5 mM stocks, respectively) and diluted to the indicated concentrations with culture medium.
For cell proliferation analysis, cells were seeded at 10^5 cells/well in 12-well plates 24 hours prior to treatment. […] Over the course of the 4-day treatment, cell confluence was measured by brightfield microscopy using a Celigo Adherent Cell Cytometer (Brooks, Chelmsford Mass., USA). Confluence was calculated with the Celigo software program.

SW1463 cells = experiment: LC-MS/MS bioanalysis of ganetespib in SW1463 cells; type: in vitro ADME, human; details: 1 μM ganetespib, 8 hr
Procedure: (§2) Colon cancer cells were treated with 1 μM ganetespib for 5, 15, 30, 60 or 480 minutes. At each time point, media was collected and cell lysates were generated for subsequent bioanalysis of secreted and intracellular concentrations of ganetespib and its glucuronides. Equal protein concentrations from cell lysates or equal volumes of media were used for the bioanalysis. Samples were extracted by protein precipitation and analyzed by LC-MS/MS using an Agilent 1100 HPLC interfaced to an API 4000 tandem mass spectrometer (Applied Biosystems). A Phenomenex Kinetex 2.6 μm C18 (30×2.1 mm) column was used with a run time of 3.5 min per sample.

HT29 cells [8] = experiment: LC-MS/MS bioanalysis of ganetespib in HT29 cells; type: in vitro ADME, human; details: 1 μM ganetespib, 8 hr
Procedure: as §2

HT29 cells [9] = experiment: Cell viability assay, HT29 colorectal cancer cells; details: Homo sapiens, HT-29, read-out: IC50 based on cell viability
Procedure: 24 hours after transfection, […] were seeded in triplicate in 96-well plates one day before treatment. Cells were treated with inhibitors and drugs for 48 hours and subjected to the CellTiterGlo Luminescent Cell Viability assay (Promega, Madison Wis., USA).

## CC(C)c1cc(-c2n[nH]c(=O)n2-c2ccc3c(ccn3C)c2)c(O)cc1O [ganetespib]
[1]
  IC50: 6 nM
[2]
  IC50: 10 nM
[3]
  IC50: 33 nM
[4]
  IC50: 44 nM
[5]; 72 hours (FIG. 8), read-out: IC50 values
  IC50: > 1000 nM
[5]; FGFR3 status FGFR3-TACC3, 72 hours, read-out: Ganetespib IC50
  IC50: 1730 nM
[6]; AKT signaling
  Fold Change AKT: −2.4 fold
  Fold Change AKT (pS473): −2.5 fold
  Fold Change GSK3-A/B: −1.5 fold
  Fold Change GSK3-A/B (pS2/S9): −1.8 fold
  Fold Change PDK1: −1.4 fold
  Fold Change PDK1 (pS241): −1.7 fold
[6]; Apoptosis
  Fold Change BIM: +1.4 fold
  Fold Change Caspase 7 (cleaved D198): +2.5 fold
[6]; Cell cycle regulation
  Fold Change CDK1: −1.4 fold
  Fold Change Chk1: −3.2 fold
  Fold Change Cyclin B1: −1.9 fold
  Fold Change Rb (pS807/811): −4.6 fold
  Fold Change p21: +1.4 fold
  Fold Change p27: +1.5 fold
[6]; MAPK pathway
  Fold Change C-RAF: −1.8 fold
  Fold Change MAPK (pT202/Y204): −1.5 fold
  Fold Change MEK1 (pS217/S221): −1.4 fold
  Fold Change P90RSK (pT359/S363): −1.4 fold
  Fold Change Src (pY527): −1.4 fold
[6]; Receptor Tyrosine Kinases
  Fold Change EGFR: −1.5 fold
  Fold Change EGFR (pY1068): −1.9 fold
  Fold Change HER2: −2.2 fold
  Fold Change HER2 (pY1248): −2.2 fold
  Fold Change HER3: −1.6 fold
  Fold Change MET (pY1235): −2.7 fold
[6]; Stress response
  Fold Change HSP70/72: +3.0 fold
  Fold Change HSP90 alpha: +1.6 fold
[6]; Transcription factors
  Fold Change NF-κB p65 (pS536): −2.3 fold
  Fold Change c-Myc: −2.5 fold
[6]; mTOR pathway
  Fold Change 4E-BP1 (pS65): −2.5 fold
  Fold Change P70S6K (pT389): −4.7 fold
  Fold Change PRAS40 (pT246): −1.2 fold
  Fold Change S6 (pS235/S236): −13.2 fold
  Fold Change S6 (pS240/S244): −8.9 fold
  Fold Change TSC1: −1.3 fold
  Fold Change Tuberin: −2.2 fold
  Fold Change mTOR (pS2448): −2.2 fold
[7]
  IC50: 36 to 2500 nM
SW1463 cells
  ganetespib present: ~190 nM
HT29 cells [8]
  ganetespib present: 13 nM
HT29 cells [9]
  IC50: 2000 nM
